What was measured:
[1] = system: cytokines induced in mice by LPS; test: Mouse LPS cytokine model, Example 6C Study 2, omega fatty acids with or without 0.5 mg/kg 1:1 CBD:CBDA; format: in vivo; details: 0.5 mg/kg (0.01 mg per mouse)
Procedure: (§1) A series of experiments using a mouse LPS cytokine animal model were performed. In the mouse LPS cytokine animal model, mice were injected with LPS, which induced the immune response shortly after the mice were injected with one of the potential anti-inflammatory compounds under evaluation (the “test compound”). The efficacy of the test compound was evaluated based on its ability to reduce expression levels of inflammatory cytokines that were elevated due to the immune response. The test compounds included a cannabinoid, an omega fatty acid, and a cannabinoid-omega fatty acid composition.
(§2) The mice were intraperitoneally injected with 0.1 mL of the test compound. One hour later, the mice were intraperitoneally injected with 0.1 mL of LPS in phosphate buffered saline (PBS). Four hours later, a heart puncture was performed and the blood was allowed to clot to generate serum. 0.1 mL of the serum was diluted 1:2 with PBS and stored at −80° C. The serum was then sent to a laboratory where a mouse cytokine array/chemokine array 31-plex (MD31) analysis was performed that analyzed the expression levels of the 32 cytokines/chemokines listed in Table 9, above.
(§3) For each considered test compound, the ability of the test compound to suppress each inflammatory cytokine was calculated by determining the percent suppression.
(§4) In this study, the effects of combining 1:1 CBD:CBDA with anti-inflammatory omega unsaturated fatty acids using the mouse LPS cytokine animal model were examined.
(§5) 40 female C57BL/6 mice that weighed approximately 20 g each were allowed to acclimate for one week with unlimited access to food and water. On the day of the study, the mice were weighed and split into ten groups of four mice each so that the average weight of each group was as close as possible to each other. […] (9) LPS plus 37.50 mg omega fatty acids (0.1 mL injection of 375.00 mg/mL omega fatty acids diluted in MCT oil, followed 1 hour later by a 0.1 mL injection of LPS in PBS); and (10) LPS plus 37.50 mg omega fatty acids/0.01 mg 1:1 CBD:CBDA (0.1 mL injection of 375.00 mg/mL omega fatty acids/0.1 mg/mL 1:1 CBD:CBDA diluted in MCT oil, followed 1 hour later by a 0.1 mL injection of LPS in PBS).
Because the purpose of this experiment was to evaluate the effectiveness of combining 1:1 CBD:CBDA and the anti-inflammatory omega fatty acids, only cytokines that could be suppressed by one of the anti-inflammatory agents used in this study were considered.

[2] = system: cytokines induced in mice by LPS; test: Mouse LPS cytokine model, Example 6C Study 3, omega fatty acids with or without 0.25 mg/kg 1:1 CBD:CBDA; format: in vivo
Procedure: as §1, §2, §3, §4
as §5, with “acids/0.005” for “acids/0.01”, “acids/0.05” for “acids/0.1”
24 out of the 32 analyzed cytokines were induced two-fold by LPS. Because the purpose of this experiment was to evaluate the effectiveness of combining 1:1 CBD:CBDA and the anti-inflammatory omega fatty acids, only cytokines that could be suppressed by one of the anti-inflammatory agents used in this study were considered. 24 out of the 24 cytokines whose expression level was induced-two fold or greater by LPS met these criteria.

[3] = 0.01 mg dexamethasone in MCT oil

## C[C@@H]1C[C@H]2[C@@H]3CCC4=CC(=O)C=C[C@]4(C)[C@@]3(F)[C@@H](O)C[C@]2(C)[C@@]1(O)C(=O)CO [Dexamethasone, dexamethasone]
[1]
  AVERAGE SUPPRESSION: 46.54%
  IFNγ suppression: 70.28%
  IL-6 suppression: 76.63%
  IL-7 suppression: 31.25%
  IL-10 suppression: 24.07%
  IL-12β p40 suppression: 56.90%
  IL-15 suppression: 42.45%
  IL-17 suppression: 64.04%
  IP-10 suppression: 44.62%
  KC suppression: 79.04%
  LIF suppression: 51.34%
  MCP-1 suppression: 57.38%
  MIG suppression: 20.57%
  MIP-1α suppression: 59.54%
  MIP-1β suppression: 27.89%
  RANTES suppression: 46.25%
  TNF-α suppression: 61.44%
[2]; [3]
  Percent suppression of elevated cytokine levels, Eotaxin: 7.26%
  Percent suppression of elevated cytokine levels, IFNγ: 44.52%
  Percent suppression of elevated cytokine levels, IL-1β: 35.53%
  Percent suppression of elevated cytokine levels, IL-2: −9.46%
  Percent suppression of elevated cytokine levels, IL-6: 85.95%
  Percent suppression of elevated cytokine levels, IL-7: 96.66%
  Percent suppression of elevated cytokine levels, IL-10: 57.41%
  Percent suppression of elevated cytokine levels, IL-12β p40: 54.79%
  Percent suppression of elevated cytokine levels, IL-12β p70: −51.07%
  Percent suppression of elevated cytokine levels, IL-13: 11.39%
  Percent suppression of elevated cytokine levels, IL-15: −13.42%
  Percent suppression of elevated cytokine levels, IL-17: 63.75%
  Percent suppression of elevated cytokine levels, IP-10: 42.02%
  Percent suppression of elevated cytokine levels, KC: 60.10%
  Percent suppression of elevated cytokine levels, LIF: 47.18%
  Percent suppression of elevated cytokine levels, MCP-1: 57.29%
  Percent suppression of elevated cytokine levels, MIG: −0.29%
  Percent suppression of elevated cytokine levels, MIP-1α: 47.13%
  Percent suppression of elevated cytokine levels, MIP-1β: 34.67%
  Percent suppression of elevated cytokine levels, MIP-2: 37.57%
  Percent suppression of elevated cytokine levels, RANTES: 37.87%
  Percent suppression of elevated cytokine levels, TNF-α: 51.43%
  Percent suppression of elevated cytokine levels, VEGF: 75.98%
[2]; 0.01 mg dexamethasone in MCT oil, average of 24 cytokines
  Percent suppression of elevated cytokine levels, AVERAGE SUPPRESSION: 37.59%
[2]; 0.01 mg per mouse
  decrease in the cytokine expression levels (average): 37.59%

Reference: patent publication US12678451B2, “Cannabinoid and omega fatty acid compositions and methods of using” (GreenWay Herbal Products, LLC, priority 2019, dated 2026)
